What was measured:
Human islet cells = assay: Effects on human islet cell viability; format: cell-based; settings: 48 h, compound 1 μM
Method: Human islet cells were incubated at control condition, with the cytokines IL-1β (20 ng/ml)+IFN-γ (20 ng/ml), or with palmitate (1.5 mM+2% BSA)+high glucose (20 mM) (PH) for 2 days with or without Nox1 inhibitor ML-171 (2 μM), Nox2 inhibitor Phos-I2 (2 μM) or Example 17 (1 μM). Islets were photographed in an inverted fluorescence microscope and the intensities of red (PI) and blue (Bisbenzimide) signals were quantified using Image J software. Results are indicated as mean±S.E.M for 7 human islet donors.

Sprague-Dawley rats = assay: Streptozotocin rat model of diabetic retinopathy; format: in vivo; settings: 10 mg/ml eye drops for two weeks, STZ diabetic rats
Method: Animals were maintained on a 12 h light-dark cycle, at 22-25° C. Food and water were available ad libitum. Diabetes was induced by a single dose of streptozotocin (STZ, 70 mg/kg, ip, Sigma-Aldrich, Germany) dissolved in sodium citrate (0.1M) buffer (diabetic group) after a fasting period of 8-12 hours. Animals with blood glucose levels>350 mg/d1, after 72 hours post-STZ injection were considered diabetic. Both male and female Sprague-Dawley rats were used in the study. Three experimental groups were employed, namely Control (n=6), Diabetic (n=7), and Diabetic-treated group (n=6). Example 17 (10 mg/ml) dissolved in DMSO was administered as eye drops, for two weeks, starting two (2) days after STZ administration. Animals were euthanized 24 hours after the last treatment, and their eyes were removed. […]
Antibodies raised against the macroglia marker glial fibrillary acidic protein (GFAP) were employed. Quantification using the public domain ImageJ 1.43m software was employed for the mean gray value [integrated density (fluorescence density)/delineated area] calculated and expressed as a percentage of the mean gray value of the control. Statistical analysis of the data was performed using GraphPad Prism v5.0 (San Diego, Calif., USA) and differences between groups were evaluated by one-way analysis of variance (ANOVA) with Neuman-Keuls. […]

C57B16/J mice = assay: Mouse model of acute ischemic stroke by transient middle cerebral artery occlusion (tMCAO); format: in vivo; settings: 2.56 mg/kg ip, 6 times once per hour, from 1 hour after reperfusion or 30 min before reperfusion, 24 h
Method: A mouse model of acute ischemic stroke by transient middle cerebral artery occlusion (tMCAO) was used. The model has been described by Kleinschnitz C, et al. 2010, J Exp Med 203(3):513-518. C57B16/J mice were anesthetized with isoflurane (0.8% in oxygen). The animal was placed on a heating-pad, and rectal temperature was maintained at 37.0° C. using a servo-controlled rectal probe-heating pad (Cibertec, Spain). Transient cerebral ischemia was induced using an intraluminal filament technique. Using a surgical microscope (Tecnoscopio OPMI pico, Carl Zeiss, Meditec Iberia SA, Spain), a midline neck incision was made and the right common and external carotid arteries were isolated and permanently ligated. […]
After sacrificing the mice (24 h reperfusion), brains were quickly removed and cut in four 2-mm thick coronal sections using a mouse brain slice matrix (Harvard Apparatus, Spain). […] Indirect infarct volumes were calculated by volumetry (ImageJ software, National Institutes of Health, USA) according to the following equation: Vindirect (mm^3)=Vinfarct×(1−(Vih−Vch)/Vch), where the term (Vih−Vch) represents the volume difference between the ischemic hemisphere and the control hemisphere and (Vih−Vch)/Vch expresses this difference as a percentage of the control hemisphere (FIGS. 7 and 9).

For `Cc1ccccc1CCNS(=O)(=O)c1c(Cl)cc(Br)cc1Cl` [Example 17, 4-bromo-2,6-dichloro-N-[2-(2-methylphenyl)ethyl]benzene-1-sulfonamide], the “human islet cell death with cytokines” value (Human islet cells; IL-1β (20 ng/ml)+IFN-γ (20 ng/ml)) was “protected both against cytokines and high glucose+palmitate”, the “human islet cell death with high glucose+palmitate” value (Human islet cells; palmitate (1.5 mM)+high glucose (20 mM)) was “protected both against cytokines and high glucose+palmitate” and the “GFAP immunoreactivity in retina” value (Sprague-Dawley rats) was “attenuated the diabetes induced increase in GFAP immunoreactivity”. For the same compound, the “brain damage (TTC stained coronal brain sections)” value (C57B16/J mice) was “significant reduction in brain damage” and the infarct volume (C57B16/J mice; compared to control animals) was “substantial reduction of infarct volume”.

— patent US12202790B2, “Sulfonamide derivatives having selective Nox inhibiting activity” (GLUCOX BIOTECH AB, priority 2018, dated 2025)
